# According to ChEMBL document CHEMBL3112574, “Substituted piperidines as HDM2 inhibitors” (Bioorg Med Chem Lett, 2014):
# Tested on: not listed separately
# Experiment: Cmax in mouse at 20 mg/kg, po
# Type: ADME, organism-based
# Parameters: dose 20 mg/kg, route oral
# Settings: in vivo
row,Structure (SMILES),Cmax [nM]
1,"COCCOc1ccccc1N1CCN(C(=O)C2(Oc3ccc(C(F)(F)F)cc3)CCCN(C(=O)c3cnccc3C(F)(F)F)C2)CC1.Cl (single isomer, unassigned)",700

# Tested on: not listed separately
# Experiment: AUC (0 to 24 hrs) in mouse at 20 mg/kg, po
# Type: ADME, organism-based
# Parameters: time < 24 hr, dose 20 mg/kg, route oral
# Settings: plasma
row,Structure (SMILES),AUC(0-t) at 24 h [µM·h]
1,"COCCOc1ccccc1N1CCN(C(=O)C2(Oc3ccc(C(F)(F)F)cc3)CCCN(C(=O)c3cnccc3C(F)(F)F)C2)CC1.Cl (single isomer, unassigned)",1.1

# Tested on: not listed separately
# Experiment: AUC (0 to 24 hrs) in mouse at 20 mg/kg, iv
# Type: ADME, organism-based
# Parameters: time < 24 hr, dose 20 mg/kg, route intravenous
# Settings: plasma
row,Structure (SMILES),AUC(0-t) at 24 h [µM·h]
1,"COCCOc1ccccc1N1CCN(C(=O)C2(Oc3ccc(C(F)(F)F)cc3)CCCN(C(=O)c3cnccc3C(F)(F)F)C2)CC1.Cl (single isomer, unassigned)",3.4

# Biological target: T1, Cytochrome P450 2D6 (Homo sapiens, UniProt P10635)
# Experiment: Inhibition of CYP2D6 (unknown origin) compound preincubated with substrate
# Type: ADME
# Settings: not given
# T1 sequence (P10635 whole entry): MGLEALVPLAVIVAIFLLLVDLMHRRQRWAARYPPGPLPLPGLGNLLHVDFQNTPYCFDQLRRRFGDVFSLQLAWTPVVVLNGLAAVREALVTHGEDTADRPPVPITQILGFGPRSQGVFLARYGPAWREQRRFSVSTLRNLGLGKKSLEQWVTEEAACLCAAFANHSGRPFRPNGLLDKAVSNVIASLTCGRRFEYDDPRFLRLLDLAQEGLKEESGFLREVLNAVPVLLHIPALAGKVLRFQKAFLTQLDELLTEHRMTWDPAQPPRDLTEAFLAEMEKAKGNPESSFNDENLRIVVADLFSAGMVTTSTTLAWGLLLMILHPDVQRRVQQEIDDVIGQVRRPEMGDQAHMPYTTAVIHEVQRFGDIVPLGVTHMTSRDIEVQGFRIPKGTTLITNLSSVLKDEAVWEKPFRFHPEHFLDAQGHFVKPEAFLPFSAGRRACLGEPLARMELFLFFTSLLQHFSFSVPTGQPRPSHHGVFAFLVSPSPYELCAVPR
row,Structure (SMILES),IC50 [µM]
1,"COCCOc1ccccc1N1CCN(C(=O)C2(Oc3ccc(C(F)(F)F)cc3)CCCN(C(=O)c3cnccc3C(F)(F)F)C2)CC1.Cl (single isomer, unassigned)",> 30

# Biological target: Tumour suppressor p53/oncoprotein Mdm2 (Homo sapiens, UniProt Q00987)
# Experiment: Inhibition of human MDM2/p53 interaction by fluorescence polarization assay
# Type: protein assay
# Settings: not given
# Sequence of Tumour suppressor p53/oncoprotein Mdm2 (P04637 whole entry): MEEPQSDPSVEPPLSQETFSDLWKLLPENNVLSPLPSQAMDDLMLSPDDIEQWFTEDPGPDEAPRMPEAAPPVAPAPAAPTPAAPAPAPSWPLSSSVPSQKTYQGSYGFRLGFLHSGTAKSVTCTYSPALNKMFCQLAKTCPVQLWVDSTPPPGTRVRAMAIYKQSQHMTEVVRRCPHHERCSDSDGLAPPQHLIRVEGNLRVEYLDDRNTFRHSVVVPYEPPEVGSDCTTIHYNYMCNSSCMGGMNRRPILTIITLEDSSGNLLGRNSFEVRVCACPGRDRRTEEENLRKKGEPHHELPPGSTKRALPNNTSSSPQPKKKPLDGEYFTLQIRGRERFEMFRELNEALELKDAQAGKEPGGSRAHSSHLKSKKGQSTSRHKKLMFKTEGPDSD
# Sequence of Tumour suppressor p53/oncoprotein Mdm2 (Q00987 whole entry): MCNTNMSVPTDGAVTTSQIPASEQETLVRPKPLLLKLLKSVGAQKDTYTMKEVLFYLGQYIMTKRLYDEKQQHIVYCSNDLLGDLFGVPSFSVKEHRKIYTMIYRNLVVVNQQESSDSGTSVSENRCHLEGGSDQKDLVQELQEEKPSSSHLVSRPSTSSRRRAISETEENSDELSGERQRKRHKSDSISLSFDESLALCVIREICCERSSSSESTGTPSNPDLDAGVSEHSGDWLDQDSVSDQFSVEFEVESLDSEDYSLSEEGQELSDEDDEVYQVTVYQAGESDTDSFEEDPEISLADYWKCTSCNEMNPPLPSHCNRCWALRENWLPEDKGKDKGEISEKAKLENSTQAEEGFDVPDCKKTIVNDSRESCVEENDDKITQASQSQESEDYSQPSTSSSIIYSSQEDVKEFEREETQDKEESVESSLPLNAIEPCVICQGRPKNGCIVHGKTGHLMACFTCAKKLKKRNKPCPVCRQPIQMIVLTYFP
row,Structure (SMILES),IC50 [µM]
1,O=C(NCCc1ccccc1)C1(Oc2ccc(C(F)(F)F)cc2)CCCN(C(=O)C2(c3ccc(Cl)cc3)CC2)C1 (centres undefined),1.4
2,O=C(c1cnccc1C(F)(F)F)N1CCCC(Oc2cccc(Cl)c2)(C(=O)N2CCN(c3ccccn3)CC2)C1 (centres undefined),5.2
3,O=C(c1cnccc1C(F)(F)F)N1CCCC(Oc2ccc(Cl)cc2)(C(=O)N2CCN(c3ccccn3)CC2)C1 (centres undefined),6.7
4,O=C(c1cnccc1C(F)(F)F)N1CCCC(Oc2ccc(F)cc2)(C(=O)N2CCN(c3ccccn3)CC2)C1 (centres undefined),6
5,O=C(c1cnccc1C(F)(F)F)N1CCCC(Oc2ccc(Br)cc2)(C(=O)N2CCN(c3ccccn3)CC2)C1 (centres undefined),1.9
6,O=C(c1cnccc1C(F)(F)F)N1CCCC(Oc2ccc(Br)c(F)c2)(C(=O)N2CCN(c3ccccn3)CC2)C1 (centres undefined),2.9
7,O=C(c1cnccc1C(F)(F)F)N1CCCC(Oc2ccc(Cl)c(F)c2)(C(=O)N2CCN(c3ccccn3)CC2)C1 (centres undefined),1.4
8,Cc1nc2cc(OC3(C(=O)N4CCN(c5ccccn5)CC4)CCCN(C(=O)c4cnccc4C(F)(F)F)C3)ccc2s1 (centres undefined),41
9,O=C(c1cnccc1C(F)(F)F)N1CCCC(Oc2ccc(-c3ccccc3)cc2)(C(=O)N2CCN(c3ccccn3)CC2)C1 (centres undefined),48
10,COc1ccc(OC2(C(=O)N3CCN(c4ccccn4)CC3)CCCN(C(=O)c3cnccc3C(F)(F)F)C2)cc1 (centres undefined),33
11,Cc1ccc(OC2(C(=O)N3CCN(c4ccccn4)CC3)CCCN(C(=O)c3cnccc3C(F)(F)F)C2)cc1 (centres undefined),1.5
12,O=C(c1cnccc1C(F)(F)F)N1CCCC(Oc2ccc(C(F)(F)F)cc2)(C(=O)N2CCN(c3ccccn3)CC2)C1 (centres undefined),2.3
13,O=C(c1cnccc1C(F)(F)F)N1CCCC(Oc2ccc(C(F)(F)F)cc2)(C(=O)N2CCN(c3ccccc3)CC2)C1 (centres undefined),2.8
14,O=C(c1cnccc1C(F)(F)F)N1CCCC(Oc2ccc(C(F)(F)F)cc2)(C(=O)N2CCN(c3ccncn3)CC2)C1 (centres undefined),18
15,O=C(c1cnccc1C(F)(F)F)N1CCCC(Oc2ccc(C(F)(F)F)cc2)(C(=O)N2CCN(c3ncccn3)CC2)C1 (centres undefined),35
16,O=C(c1cnccc1C(F)(F)F)N1CCCC(Oc2ccc(C(F)(F)F)cc2)(C(=O)N2CCN(C3CCCCC3)CC2)C1 (centres undefined),4.2
17,CC(=O)N1CCN(C(=O)C2(Oc3ccc(C(F)(F)F)cc3)CCCN(C(=O)c3cnccc3C(F)(F)F)C2)CC1 (centres undefined),36
18,CN1CCN(C(=O)C2(Oc3ccc(C(F)(F)F)cc3)CCCN(C(=O)c3cnccc3C(F)(F)F)C2)CC1 (centres undefined),12
19,O=C(c1cnccc1C(F)(F)F)N1CCCC(Oc2ccc(C(F)(F)F)cc2)(C(=O)N2CCN(Cc3ccccc3)CC2)C1 (centres undefined),39
20,O=C(c1cnccc1C(F)(F)F)N1CCCC(Oc2ccc(C(F)(F)F)cc2)(C(=O)N2CC=C(c3ccccc3)CC2)C1 (centres undefined),1.4
21,O=C(c1cnccc1C(F)(F)F)N1CCCC(Oc2ccc(C(F)(F)F)cc2)(C(=O)N2CCC(c3ccccn3)C2)C1 (centres undefined),3.7
22,O=C(c1cnccc1C(F)(F)F)N1CCCC(Oc2ccc(C(F)(F)F)cc2)(C(=O)N2CCc3ccccc3C2)C1 (centres undefined),1.4
23,O=C(c1cnccc1C(F)(F)F)N1CCCC(Oc2ccc(C(F)(F)F)cc2)(C(=O)NCc2ccc(Cl)cc2)C1 (centres undefined),1.5
24,O=C(c1cnccc1C(F)(F)F)N1CCCC(Oc2ccc(C(F)(F)F)cc2)(C(=O)NCCc2ccccc2)C1 (centres undefined),3.5
25,COc1cccc(N2CCN(C(=O)C3(Oc4ccc(C(F)(F)F)cc4)CCCN(C(=O)c4cnccc4C(F)(F)F)C3)CC2)c1 (centres undefined),> 50

row,Structure (SMILES),IC50 [µM]
1,COc1ccc(N2CCN(C(=O)C3(Oc4ccc(C(F)(F)F)cc4)CCCN(C(=O)c4cnccc4C(F)(F)F)C3)CC2)cc1 (centres undefined),23
2,O=C(c1cnccc1C(F)(F)F)N1CCCC(Oc2ccc(C(F)(F)F)cc2)(C(=O)N2CCN(c3ccccc3O)CC2)C1 (centres undefined),0.97
3,CCOc1ccccc1N1CCN(C(=O)C2(Oc3ccc(C(F)(F)F)cc3)CCCN(C(=O)c3cnccc3C(F)(F)F)C2)CC1 (centres undefined),0.59
4,CC(=O)Nc1ccccc1N1CCN(C(=O)C2(Oc3ccc(C(F)(F)F)cc3)CCCN(C(=O)c3cnccc3C(F)(F)F)C2)CC1 (centres undefined),0.38
5,CCC(=O)Nc1ccccc1N1CCN(C(=O)C2(Oc3ccc(C(F)(F)F)cc3)CCCN(C(=O)c3cnccc3C(F)(F)F)C2)CC1 (centres undefined),0.37
6,COCC(=O)Nc1ccccc1N1CCN(C(=O)C2(Oc3ccc(C(F)(F)F)cc3)CCCN(C(=O)c3cnccc3C(F)(F)F)C2)CC1 (centres undefined),0.54
7,CN(C)CC(=O)Nc1ccccc1N1CCN(C(=O)C2(Oc3ccc(C(F)(F)F)cc3)CCCN(C(=O)c3cnccc3C(F)(F)F)C2)CC1 (centres undefined),0.67
8,CN(C)CCC(=O)Nc1ccccc1N1CCN(C(=O)C2(Oc3ccc(C(F)(F)F)cc3)CCCN(C(=O)c3cnccc3C(F)(F)F)C2)CC1 (centres undefined),0.59
9,CN(C)CCCC(=O)Nc1ccccc1N1CCN(C(=O)C2(Oc3ccc(C(F)(F)F)cc3)CCCN(C(=O)c3cnccc3C(F)(F)F)C2)CC1 (centres undefined),1.08
10,Cc1cc(CC(=O)Nc2ccccc2N2CCN(C(=O)C3(Oc4ccc(C(F)(F)F)cc4)CCCN(C(=O)c4cnccc4C(F)(F)F)C3)CC2)on1 (centres undefined),0.63
11,O=C(CC1NC(=O)NC1=O)Nc1ccccc1N1CCN(C(=O)C2(Oc3ccc(C(F)(F)F)cc3)CCCN(C(=O)c3cnccc3C(F)(F)F)C2)CC1 (centres undefined),0.27
12,O=C(c1ccccc1C(F)(F)F)N1CCCC(Oc2ccc(C(F)(F)F)cc2)(C(=O)N2CCN(c3ccccn3)CC2)C1 (centres undefined),6.5
13,O=C(N1CCN(c2ccccn2)CC1)C1(Oc2ccc(C(F)(F)F)cc2)CCCN(Cc2ccccc2C(F)(F)F)C1 (centres undefined),14
14,CCCN1CCCC(Oc2ccc(C(F)(F)F)cc2)(C(=O)N2CCN(c3ccccn3)CC2)C1 (centres undefined),6.5
15,CC(C)(C)CCN1CCCC(Oc2ccc(C(F)(F)F)cc2)(C(=O)N2CCN(c3ccccn3)CC2)C1 (centres undefined),6.9
16,O=C(N1CCN(c2ccccn2)CC1)C1(Oc2ccc(C(F)(F)F)cc2)CCCN(CC2CCCCC2)C1 (centres undefined),5.1
17,CC(C)(C)CC(=O)N1CCCC(Oc2ccc(C(F)(F)F)cc2)(C(=O)N2CCN(c3ccccn3)CC2)C1 (centres undefined),3
18,CC(C)(C)C(=O)N1CCCC(Oc2ccc(C(F)(F)F)cc2)(C(=O)N2CCN(c3ccccn3)CC2)C1 (centres undefined),22
19,O=C(N1CCN(c2ccccn2)CC1)C1(Oc2ccc(C(F)(F)F)cc2)CCCN(C(=O)C2(c3ccc(Cl)cc3)CC2)C1 (centres undefined),1.9
20,O=C(N1CCN(c2ccccn2)CC1)C1(Oc2ccc(C(F)(F)F)cc2)CCCN(S(=O)(=O)c2ccccc2)C1 (centres undefined),26
21,O=C(N1CCN(c2ccccn2)CC1)C1(Oc2ccc(C(F)(F)F)cc2)CCCN(S(=O)(=O)c2ccccc2C(F)(F)F)C1 (centres undefined),41
22,O=C(N1CCN(c2ccccn2)CC1)C1(Oc2ccc(C(F)(F)F)cc2)CCCN(S(=O)(=O)c2ccccc2Cl)C1 (centres undefined),31
23,O=C(N1CCN(c2ccccn2)CC1)C1(Oc2ccc(C(F)(F)F)cc2)CCCN(S(=O)(=O)c2ccc(Cl)cc2)C1 (centres undefined),50
24,CC(C)S(=O)(=O)N1CCCC(Oc2ccc(C(F)(F)F)cc2)(C(=O)N2CCN(c3ccccn3)CC2)C1 (centres undefined),6.9
25,O=C(c1cnccc1C(F)(F)F)N1CCCC(Oc2ccccc2Cl)(C(=O)N2CCN(c3ccccn3)CC2)C1 (centres undefined),21

# Biological target: T2, Cytochrome P450 2C9 (Homo sapiens, UniProt P11712)
# Experiment: Inhibition of CYP2C9 (unknown origin) compound preincubated with substrate
# Type: ADME
# Settings: not given
# T2 sequence (P11712 whole entry): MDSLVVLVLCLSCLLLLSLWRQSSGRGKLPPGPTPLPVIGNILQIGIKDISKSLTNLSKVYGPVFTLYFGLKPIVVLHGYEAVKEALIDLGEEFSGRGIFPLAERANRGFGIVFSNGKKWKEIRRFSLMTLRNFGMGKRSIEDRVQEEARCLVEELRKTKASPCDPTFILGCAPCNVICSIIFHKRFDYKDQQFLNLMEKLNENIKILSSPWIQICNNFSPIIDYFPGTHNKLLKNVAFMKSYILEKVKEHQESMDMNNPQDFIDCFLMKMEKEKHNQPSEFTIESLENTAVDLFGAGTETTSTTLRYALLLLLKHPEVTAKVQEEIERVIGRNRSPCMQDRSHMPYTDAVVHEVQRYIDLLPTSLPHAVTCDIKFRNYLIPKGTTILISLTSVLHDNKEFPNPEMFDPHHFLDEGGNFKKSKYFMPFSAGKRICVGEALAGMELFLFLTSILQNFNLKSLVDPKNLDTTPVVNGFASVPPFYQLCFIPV
row,Structure (SMILES),IC50 [µM]
1,"COCCOc1ccccc1N1CCN(C(=O)C2(Oc3ccc(C(F)(F)F)cc3)CCCN(C(=O)c3cnccc3C(F)(F)F)C2)CC1.Cl (single isomer, unassigned)",> 30

# Biological target: T1, Cytochrome P450 2D6
# Experiment: Inhibition of CYP2D6 (unknown origin) compound co-incubated with substrate
# Type: ADME
# Settings: not given
row,Structure (SMILES),IC50 [µM]
1,"COCCOc1ccccc1N1CCN(C(=O)C2(Oc3ccc(C(F)(F)F)cc3)CCCN(C(=O)c3cnccc3C(F)(F)F)C2)CC1.Cl (single isomer, unassigned)",> 30

# Biological target: T2, Cytochrome P450 2C9
# Experiment: Inhibition of CYP2C9 (unknown origin) compound co-incubated with substrate
# Type: ADME
# Settings: not given
row,Structure (SMILES),IC50 [µM]
1,"COCCOc1ccccc1N1CCN(C(=O)C2(Oc3ccc(C(F)(F)F)cc3)CCCN(C(=O)c3cnccc3C(F)(F)F)C2)CC1.Cl (single isomer, unassigned)",> 30

# Tested on: not listed separately
# Experiment: Tmax in mouse at 20 mg/kg, po
# Type: ADME, organism-based
# Parameters: dose 20 mg/kg, route oral
# Settings: in vivo
row,Structure (SMILES),Tmax [h]
1,"COCCOc1ccccc1N1CCN(C(=O)C2(Oc3ccc(C(F)(F)F)cc3)CCCN(C(=O)c3cnccc3C(F)(F)F)C2)CC1.Cl (single isomer, unassigned)",1

# Tested on: not listed separately
# Experiment: Oral bioavailability in mouse at 20 mg/kg
# Type: ADME, organism-based
# Settings: in vivo
row,Structure (SMILES),bioavailability [%]
1,"COCCOc1ccccc1N1CCN(C(=O)C2(Oc3ccc(C(F)(F)F)cc3)CCCN(C(=O)c3cnccc3C(F)(F)F)C2)CC1.Cl (single isomer, unassigned)",32
